Experimental data: patent US9452126B2, “Pharmaceutical/cosmetic compositions comprising hyaluronic acid and treatment of dermatological conditions therewith” (Galderma Research & Development, priority 2005, dated 2016)

Target: T1, hyaluronidase of bovine origin (Bos taurus, UniProt Q2YDK3)
T1 sequence (Q2YDK3 36-553): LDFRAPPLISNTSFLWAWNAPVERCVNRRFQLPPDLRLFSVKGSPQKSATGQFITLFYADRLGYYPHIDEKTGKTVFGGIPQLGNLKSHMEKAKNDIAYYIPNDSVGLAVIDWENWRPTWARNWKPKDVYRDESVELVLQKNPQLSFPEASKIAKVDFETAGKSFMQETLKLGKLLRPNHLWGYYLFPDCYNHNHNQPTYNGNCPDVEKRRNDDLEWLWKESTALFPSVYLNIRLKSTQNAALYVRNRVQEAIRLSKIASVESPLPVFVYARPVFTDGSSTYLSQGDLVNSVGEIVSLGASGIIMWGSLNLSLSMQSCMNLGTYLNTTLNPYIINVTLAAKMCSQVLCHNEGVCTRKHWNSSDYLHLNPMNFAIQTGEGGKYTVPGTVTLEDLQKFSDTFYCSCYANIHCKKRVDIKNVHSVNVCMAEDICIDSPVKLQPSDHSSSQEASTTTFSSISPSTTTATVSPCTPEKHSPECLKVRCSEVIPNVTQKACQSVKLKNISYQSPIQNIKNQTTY
Test: Inhibitory effect on hyaluronidase activity of bovine origin (turbidimetry at 600 nm)
Format: biochemical
Settings: GLZ pre-incubated for 20 minutes at 37° C. with the enzyme
Protocol: Determination of the IC50 of GLZ, with or without Pre-Incubation at 37° C.:
GLZ, at various concentrations, is or is not pre-incubated for 20 minutes at 37° C. in the presence of the enzyme. The enzyme reaction is triggered by adding the hyaluronic acid solution (time T0). After incubation for 20 minutes, the non-hydrolyzed hyaluronic acid is precipitated by adding acidic bovine albumin solution.
In order to verify that the pre-incubation step has no effect on the stability of the hyaluronidase, an aliquot of a solution of the enzyme is placed at 37° C. for 20 minutes. Another aliquot is conserved in an ice bath for 19 minutes, and is then incubated at 37° C. for 1 minute. A solution of hyaluronic acid is then added to each aliquot (T0). After incubation for 15, or 45 minutes, the non-hydrolyzed hyaluronic acid is precipitated by addition of acidic bovine albumin solution.
Measurement of the Hyaluronidase Activity of Bovine Origin:
After the precipitation step, the turbidimetry of the solutions is determined on a spectrophotometer at a wavelength of 600 nm. The optical density (OD) of these solutions is subtracted from the OD of a control solution of hyaluronic acid (of the same concentration) not hydrolyzed by the enzyme. This difference in OD, which is inversely proportional to the concentration of hyaluronic acid, is used to measure the activity of the hyaluronidase.

CC1(C)[C@@H](O[C@H]2O[C@H](C(=O)O)[C@@H](O)[C@H](O)[C@H]2O[C@@H]2O[C@H](C(=O)O)[C@@H](O)[C@H](O)[C@H]2O)CC[C@]2(C)[C@H]3C(=O)C=C4[C@@H]5C[C@@](C)(C(=O)O)CC[C@]5(C)CC[C@@]4(C)[C@]3(C)CC[C@@H]12 [GLZ, glycyrrhizin]
IC50: 350 µM
